Laboratory results from the METLIN SMRT retention time set (Domingo-Almenara et al. 2019).
Values belong to the molecule of their own block, whether it stands above or below them.

Assay: gradient 5% acetonitrile 3 min, to 50% in 2 min, to 85% in 15 min, held 3 min, 100 µL/min
Details: column: Zorbax Extend-C18 2.1 x 50 mm; eluents: water / acetonitrile, 0.1% formic acid
Outline: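 Values are retention times taken from adduct peaks that software picked and an analyst inspected. The pure standards were run as mixtures of ~100 molecules on HPLC linked to a quadrupole time-of-flight mass spectrometer, in positive and negative ionization mode. A Zorbax Extend-C18 column (2.1 × 50 mm, 1.8 μm) was used at 100 μL/min with water and acetonitrile, each including 0.1% formic acid.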

- RP-LC retention time: 824 s
Structure (SMILES): CSc1cccc(NC(=O)NC2CCN(c3ccc(F)cc3)C2=O)c1 (centres undefined)

- RP-LC retention time: 1060 s
Structure (SMILES): COc1ccc(-c2noc(CN3C(=O)COc4cc(Cl)ccc43)n2)cc1

- RP-LC retention time: 793 s
Structure (SMILES): CCOC(=O)c1c(S(=O)(=O)N2CCC(C(=O)NCc3ccc(OC)cc3)CC2)c(C)n(C)c1C

- RP-LC retention time: 1070 s
Structure (SMILES): Cc1ccc(C(C)NC(=O)C2CCN(c3nccnc3Oc3cccc(C)c3)CC2)cc1 (centres undefined)

- RP-LC retention time: 650 s
Structure (SMILES): O=C(NCc1ccc2c(c1)OCO2)c1cn2c(n1)CSCC2

- RP-LC retention time: 835 s
Structure (SMILES): Cc1ccc(CNC(=O)CN2CCN(Cc3ccc(F)cc3)C2=O)cc1C

- RP-LC retention time: 1090 s
Structure (SMILES): COc1ccc(C2Cn3nnc(-c4nc(-c5ccccc5F)no4)c3CO2)cc1 (centres undefined)

- RP-LC retention time: 692 s
Structure (SMILES): CCc1ccc(C(O)CN2CCN(c3ccccc3)CC2)cc1 (centres undefined)

- RP-LC retention time: 769 s
Structure (SMILES): COc1cccc(CNC(=O)CN2CCN(Cc3ccc(F)cc3)C2=O)c1

- RP-LC retention time: 655 s
Structure (SMILES): O=c1ccn2c(n1)SC(c1ccccc1)C2 (centres undefined)

- RP-LC retention time: 883 s
Structure (SMILES): O=C(NCCC1CCN(S(=O)(=O)c2ccccc2)CC1)Nc1ccc(F)cc1

- RP-LC retention time: 755 s
Structure (SMILES): COC(=O)c1ncn2c1C(=O)N(Cc1ccc(Cl)cc1)C(C)(C(=O)NCc1ccccc1)C2 (centres undefined)

- RP-LC retention time: 1010 s
Structure (SMILES): CCN1C(=O)COc2ccc(-c3nc(NC(=O)c4ccccc4Br)sc3C)cc21

- RP-LC retention time: 674 s
Structure (SMILES): Cc1ccc(-c2nc3cccnc3n2CCCNC(=O)NCc2ccco2)cc1

- RP-LC retention time: 745 s
Structure (SMILES): CN(Cc1ccccc1)c1ccc(-c2noc(CN3CCC4(CC3)OCCO4)n2)cn1

- RP-LC retention time: 990 s
Structure (SMILES): COc1ccc(N2CC(c3noc(-c4ccc(Cl)cc4)n3)CC2=O)cc1 (centres undefined)

- RP-LC retention time: 881 s
Structure (SMILES): Cc1ccc(CNC(=O)c2cc3c(s2)CCN(C(=O)c2ccccc2)C3)o1

- RP-LC retention time: 796 s
Structure (SMILES): CC1CCCN(c2nc(=O)n(CC(=O)Nc3ccc4c(c3)OCO4)c3ccccc23)C1 (centres undefined)

- RP-LC retention time: 790 s
Structure (SMILES): O=C1COc2ccc(S(=O)(=O)N3CCCC3C(=O)N3CCN(c4ccccc4F)CC3)cc2N1 (centres undefined)

- RP-LC retention time: 743 s
Structure (SMILES): CCn1cnc2ccc(-c3noc(COc4ccc(OC)cc4)n3)cc21

- RP-LC retention time: 1080 s
Structure (SMILES): Cc1ccc(CNC(=O)c2nc(-c3oc4c(C)cccc4c3C)no2)o1

- RP-LC retention time: 671 s
Structure (SMILES): O=C(CSc1nccn1-c1ccc(C(=O)NCc2cccs2)cc1)Nc1ccccc1

- RP-LC retention time: 615 s
Structure (SMILES): O=C(CN1CCN(C(=O)Nc2ccc(Br)cc2)CC1=O)NCc1ccccn1

- RP-LC retention time: 842 s
Structure (SMILES): CCOC(=O)c1[nH]c(C)c(CCC(=O)N2CCC(C(=O)NCCCc3ccccc3)CC2)c1C

- RP-LC retention time: 918 s
Structure (SMILES): COc1ccc(-c2nnc(NC(=O)CSc3nc4ccccc4s3)s2)cc1

- RP-LC retention time: 610 s
Structure (SMILES): O=C(Nc1ccc(NC(=O)c2ccncc2)cc1)c1ccncc1

- RP-LC retention time: 792 s
Structure (SMILES): COC(=O)CNC(=O)NC(C(=O)N1CCc2ccccc21)c1ccccc1 (centres undefined)

- RP-LC retention time: 708 s
Structure (SMILES): Cc1nn(CC(=O)NCCc2c[nH]c3ccccc23)c(=O)c2noc(C)c12

- RP-LC retention time: 919 s
Structure (SMILES): CCNS(=O)(=O)c1ccc(Cl)c(-c2nnc(-c3ccccc3)o2)c1

- RP-LC retention time: 599 s
Structure (SMILES): COC(=O)Nc1ccc(S(=O)(=O)Nc2nc(C)cc(C)n2)cc1

- RP-LC retention time: 958 s
Structure (SMILES): COc1ccc2c(c1)c(CC(=O)OCC(=O)O)c(C)n2C(=O)c1ccc(Cl)cc1

- RP-LC retention time: 674 s
Structure (SMILES): O=C1NCCOCCN(C(=O)c2nccc3ccccc23)[C@H]2CCC[C@@H]12

- RP-LC retention time: 812 s
Structure (SMILES): COc1ccc(CNS(=O)(=O)c2cc3c(s2)CCN(C(=O)C2CC2)C3)cc1

- RP-LC retention time: 800 s
Structure (SMILES): Cc1cc(C)cc(NC(=O)N2CCC(N3CCN(Cc4cccc(F)c4)C(=O)C3=O)CC2)c1

- RP-LC retention time: 764 s
Structure (SMILES): COc1ccccc1CNC(=O)C1CCCN1S(=O)(=O)c1cc2c(cc1C)NC(=O)CO2 (centres undefined)

- RP-LC retention time: 687 s
Structure (SMILES): CC(C)NC(=O)c1ccc(-c2nc3cc(NS(=O)(=O)Cc4cccc(F)c4)ccc3n2C)cc1

- RP-LC retention time: 638 s
Structure (SMILES): CCN(CC)c1cc(CNC(=O)Nc2cc(Cl)c(OC)cc2OC)ccn1

- RP-LC retention time: 1160 s
Structure (SMILES): CCCN1C(=O)COc2ccc(-c3noc(-c4ccccc4F)n3)cc21

- RP-LC retention time: 1090 s
Structure (SMILES): COc1ccc(-n2c(=O)c3sccc3n(Cc3nc(-c4ccc(C)c(C)c4)no3)c2=O)cc1

- RP-LC retention time: 1130 s
Structure (SMILES): CCCS(=O)(=O)Nc1ccc(F)c(C(=O)c2c[nH]c3ncc(-c4ccc(Cl)cc4)cc23)c1F

- RP-LC retention time: 979 s
Structure (SMILES): Cc1noc(C)c1S(=O)(=O)N1CC(c2nc(CCOCc3ccccc3)no2)C1

- RP-LC retention time: 807 s
Structure (SMILES): COc1cccc(N2CCN(C(=O)C3CCN(c4nnc(-c5ccccc5)o4)CC3)CC2)c1

- RP-LC retention time: 769 s
Structure (SMILES): CCc1ccc(C(=O)N2CCC3(C2)C(=O)Nc2ccccc23)cc1 (centres undefined)

- RP-LC retention time: 705 s
Structure (SMILES): O=C(Nc1cccc(N2CCCCC2=O)c1)c1ccc(F)c(F)c1

- RP-LC retention time: 838 s
Structure (SMILES): O=C(c1ccoc1)N1CCN(C(=O)c2nnn3c2COC(c2ccc(Cl)cc2)C3)CC1 (centres undefined)

- RP-LC retention time: 878 s
Structure (SMILES): Cc1cc(C(=O)NCc2ccc(Cl)cc2)n(-c2ccccc2)n1

- RP-LC retention time: 960 s
Structure (SMILES): COCc1cnc2c(c1SCc1cccc(F)c1)c(=O)n(C)c(=O)n2C

- RP-LC retention time: 986 s
Structure (SMILES): CS(=O)(=O)N1CCC(C(=O)Nc2ccc(F)c(Cl)c2)Oc2ccccc21 (centres undefined)

- RP-LC retention time: 581 s
Structure (SMILES): Cc1oc(-c2ccc(C(=O)NCCCN3CCN(C)CC3)cc2)nc1CS(=O)c1ccccc1 (centres undefined)

- RP-LC retention time: 587 s
Structure (SMILES): CCN(CC)CCNC(=O)c1ccc(-c2ccccc2)cc1

- RP-LC retention time: 938 s
Structure (SMILES): Cc1cnn(Cc2nc(-c3ccc(NC(=O)c4sccc4C)cc3)oc2C)c1

The next lines start with the molecule.

Structure (SMILES): CCCOCCOC(=O)C1=C(C)NC2=C(C(=O)CCC2)C1c1ccc(OC)cc1OC (centres undefined)
- RP-LC retention time: 792 s

Structure (SMILES): O=C1CC(c2noc(-c3cc(F)ccc3F)n2)CN1c1ccc(F)c(Cl)c1 (centres undefined)
- RP-LC retention time: 1110 s

Structure (SMILES): CC(O)(CNC(=O)NCc1cccs1)C1CC1 (centres undefined)
- RP-LC retention time: 632 s

Structure (SMILES): Cc1nc(C(=O)NCC2CCCCC2)c(C)o1
- RP-LC retention time: 922 s

Structure (SMILES): O=C(Cn1c(=O)c2cccn2c2ccc(F)cc21)NCCCN1CCCCC1
- RP-LC retention time: 600 s

Structure (SMILES): Cc1ccc(-n2nc3c(=O)n(C(C)C(=O)NC4CC4)nc(C)c3c2C)cc1 (centres undefined)
- RP-LC retention time: 744 s

Structure (SMILES): Fc1ccc(-c2nnc(Cc3nc(-c4cccnc4)no3)o2)cc1
- RP-LC retention time: 747 s

Structure (SMILES): Cc1cccc(-c2nc(N)n(C(=O)C(C)(C)C)n2)c1
- RP-LC retention time: 1090 s

Structure (SMILES): O=C(c1cn2c(n1)COCC2)N1CCN(c2cccc(Cl)c2)CC1
- RP-LC retention time: 708 s

Structure (SMILES): COc1ccc(C2(CNC(=O)CCc3c(C)noc3C)CCOCC2)cc1
- RP-LC retention time: 660 s

Structure (SMILES): CN(C)[C@@H]1CN(C(=O)c2cccc(Br)c2)C[C@H]1CO
- RP-LC retention time: 573 s

Structure (SMILES): Cc1cccc2c(C(=O)NC3CC3)cc(N(C)C)nc12
- RP-LC retention time: 588 s

Structure (SMILES): CCOC(=O)C1CCCN(C(=O)Cn2ccc3ccc(-c4nnc(C)o4)cc32)C1 (centres undefined)
- RP-LC retention time: 785 s

Structure (SMILES): O=C(CN1C(=O)COc2ccc(C(=O)N3CCCCC3)cc21)NC1CCCCCCC1
- RP-LC retention time: 844 s

Structure (SMILES): CC(C)c1noc(C2(NC(=O)c3ccoc3)CCCCC2)n1
- RP-LC retention time: 867 s

Structure (SMILES): CCCNC(=O)C1CC(=O)N(c2n[nH]c3cccc(F)c23)C1 (centres undefined)
- RP-LC retention time: 626 s

Structure (SMILES): CCOC(=O)N1CCC(NC(=O)C2(c3ccc(F)cc3)CC2)CC1
- RP-LC retention time: 796 s

Structure (SMILES): Cc1ccc(-c2cc3c(=O)n(Cc4noc(CN5CCCC5)n4)ccn3n2)c(C)c1
- RP-LC retention time: 686 s

Structure (SMILES): Cc1sc2cc(C(=O)NC(C)(C)C)[nH]c2c1CN1CCCCC1
- RP-LC retention time: 681 s

Structure (SMILES): CCc1nc(N2CCC(C(=O)NCc3ccc(OC)c(OC)c3)CC2)c2c(C)scc2n1
- RP-LC retention time: 650 s

Structure (SMILES): CCc1ccccc1NS(=O)(=O)c1cc(-c2nc(C(C)(C)C)cs2)cs1
- RP-LC retention time: 1290 s

Structure (SMILES): Cc1ccc(C2=NC3(CCN(C(=O)c4ccc5[nH]ccc5c4)CC3)ON2)cc1
- RP-LC retention time: 790 s

Structure (SMILES): CC(=O)Nc1cccc(-c2nc(-c3cccc(-c4ccn[nH]4)c3)no2)c1
- RP-LC retention time: 763 s

Structure (SMILES): Cn1nnnc1SCC(=O)NCCn1nc(-c2ccco2)ccc1=O
- RP-LC retention time: 592 s

Structure (SMILES): Cc1cccc(NC(=O)N2CCN(c3cc(C)nc(N4CCCC4)n3)CC2)c1
- RP-LC retention time: 680 s

Structure (SMILES): O=C([C@@H]1C[C@H](Oc2ccccc2)CN1C(=O)C1CCCC1)N1CCCC1
- RP-LC retention time: 784 s

Structure (SMILES): C=CCn1nnc(NCc2ccc(-c3cc(Cl)ccc3Cl)o2)n1
- RP-LC retention time: 1130 s

Structure (SMILES): Cn1c(C(=O)N2CCCC(C(=O)N3CCN(c4ccccn4)CC3)C2)cc2sccc21 (centres undefined)
- RP-LC retention time: 614 s

Structure (SMILES): CCN(CC)C(=O)Nc1ccc(C)c(Cl)c1
- RP-LC retention time: 827 s

Structure (SMILES): CC(C)n1cnc(S(=O)(=O)N2CCCC(C(=O)Nc3cccc(CN4CCCC4)c3)C2)c1 (centres undefined)
- RP-LC retention time: 627 s

Structure (SMILES): O=C(c1csc(N2CCN(c3ccccc3)CC2)n1)N1CCN(c2ccccn2)CC1
- RP-LC retention time: 685 s

Structure (SMILES): CC(C)Cc1ccc(S(=O)(=O)N2CCC3(CCC(CN4CCN(C)CC4)O3)CC2)cc1 (centres undefined)
- RP-LC retention time: 688 s

Structure (SMILES): CCCNc1cc(N2CCCC(CCC(=O)NCc3cccc(F)c3)C2)ncn1 (centres undefined)
- RP-LC retention time: 696 s

Structure (SMILES): CCn1nc(-c2csc(S(=O)(=O)N3CCC(C)CC3)c2)ccc1=O
- RP-LC retention time: 971 s

Structure (SMILES): Cc1ccc(-c2nnc(-c3nn(C)c4c3CN(S(=O)(=O)c3cccc(C)c3)CC4)o2)cc1
- RP-LC retention time: 998 s

Structure (SMILES): COc1cc(OC)cc(-c2nnc(Cc3nc(-c4ccc(C)cc4)no3)o2)c1
- RP-LC retention time: 1080 s

Structure (SMILES): O=C(Nc1cnn(-c2ncncc2N2CCOCC2)c1)c1ccc(C(F)(F)F)cc1
- RP-LC retention time: 714 s

Structure (SMILES): CN(C)c1cnc(-n2cc(NC(=O)c3ccc(C#N)cc3)cn2)nc1
- RP-LC retention time: 716 s
